Laboratory results as given in the NIST ThermoML archive (doi:10.1016/j.tca.2008.03.014).
Numbers after ± are expanded uncertainties.

Conditions: Crystal; DTA

Row | Normal melting temperature | SMILES
1 | 790.1 ± 1 °C | [F-].[Rb+] [rubidium fluoride (RbF)]
2 | 650.00 ± 1 °C | [I-].[Rb+] [rubidium iodide (RbI)]
